From US12479850B2, “Compound having Axl and c-Met kinase inhibitory activity, preparation thereof and application thereof” (Shanghai Institute of Materia Medica, Chinese Academy of …, priority 2019, dated 2025)

How the values were obtained:
[1] = target: c-Met kinase domain recombinant protein (Homo sapiens, UniProt P08581); assay: ELISA kinase activity assay, c-Met
[2] = target: T1, Axl kinase domain recombinant protein (Homo sapiens, UniProt P30530); assay: ELISA kinase activity assay, Axl
T1 sequence (P30530 536-807 limits assumed): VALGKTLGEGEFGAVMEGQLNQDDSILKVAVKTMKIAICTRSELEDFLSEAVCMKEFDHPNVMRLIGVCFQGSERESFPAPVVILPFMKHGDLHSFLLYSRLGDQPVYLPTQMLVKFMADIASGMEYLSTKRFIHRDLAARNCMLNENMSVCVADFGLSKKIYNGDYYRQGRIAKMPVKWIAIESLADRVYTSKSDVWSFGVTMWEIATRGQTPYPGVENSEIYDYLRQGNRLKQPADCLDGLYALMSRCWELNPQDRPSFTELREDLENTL

BaF3-TEL-AXL cells = assay: BaF3-TEL-AXL cell proliferation assay (CCK-8); format: cell-based; conditions: 72 hours, read-out: IC50 value on BaF3-TEL-AXL cell proliferation inhibition
Source text: 1. BaF3-TEL-AXL Cell Proliferation Effect Assay
TEL-AXL fusion protein in BaF3-TEL-AXL cells was expressed in the cytoplasm and was an Axl-dependent sensitive cell line.
The inhibitory effect of the compound on the proliferation of BaF3-TEL-AXL cells was detected by the CCK-8 Cell Counting Kit (Dojindo). The specific steps were as follows: the BaF3-TEL-AXL cells in the logarithmic growth phase were inoculated into the 96-well culture plate at a appropriate density, after being cultured overnight, different concentrations of compounds were added for 72 hours, and a solvent control group (negative control) was set. After the compound had acted on the cells for 72 hours, the effect of the compound on cell proliferation was detected by CCK-8 cell counting kit (Dojindo), 10 μL CCK-8 reagent was added to each well, placed in an incubator at 37° C. for 2-4 hours, and the full wavelength microplate reader SpectraMax 190 was used to read, and the measurement wavelength was 450 nm.
The inhibition rate of the compound on the growth of tumor cells was calculated by the following formula (%): Inhibition rate (%)=(OD of control well−OD of administration well)/OD of control well×100%

MKN45 cells = assay: MKN45 cell proliferation assay (SRB); format: cell-based; conditions: Homo sapiens, MKN-45, 72 hours, read-out: IC50 value of MKN45 cell proliferation inhibition
Source text: 2. MKN45 Cell Proliferation Effect Assay
MKN45 is a gastric cancer cell line. MET gene amplification leads to continuous activation of Met cell line, which is a c-Met-dependent tumor cell line.
The inhibitory effect of the compound on the proliferation of MKN45 cells was detected by sulforhodamine B (SRB) protein staining method. The specific steps were as follows: MKN45 cells in the logarithmic growth phase are inoculated into a 96-well culture plate at an appropriate density. After being cultured overnight, compounds of different concentrations were added for 72 hours. Three duplicate wells for each concentration, and a solvent control group (Negative control) were set. After the action was over, the culture solution was discarded, 10% (w/v) trichloroacetic acid (100 μL/well) was added, and fixed at 4° C. for 1 hour, then washed with distilled water for five times. After drying at room temperature, 100 μL of SRB solution was added to each well, incubated and dyed at room temperature for 15 min, washed off the unbound SRB with 1% glacial acetic acid. After drying at room temperature, 10 mM Tris solution was added to each well, and full wavelength microplate SpectraMax 190 was used to test OD value at the wavelength of 515 nm. […]

c-Met kinase domain recombinant protein, sequence (P08581 1078-1345 limits assumed): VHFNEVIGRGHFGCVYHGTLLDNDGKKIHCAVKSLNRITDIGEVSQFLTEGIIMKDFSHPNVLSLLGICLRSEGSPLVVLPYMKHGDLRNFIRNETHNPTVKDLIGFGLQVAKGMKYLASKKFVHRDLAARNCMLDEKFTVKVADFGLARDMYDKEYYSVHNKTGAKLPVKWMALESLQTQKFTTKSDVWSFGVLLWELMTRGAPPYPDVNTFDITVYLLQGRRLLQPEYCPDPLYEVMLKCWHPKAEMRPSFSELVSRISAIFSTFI

SMILES | IC50 [1] [µM] | IC50 [2] [µM] | IC50 (BaF3-TEL-AXL cells) [µM] | IC50 (MKN45 cells) [µM]
CC(C)n1cc(C(=O)Nc2ccc(-c3cc(-c4cn[nH]c4)cnc3N)c(F)c2)c(=O)n(-c2ccc(F)cc2)c1=O [No. 40, N-(4-(2-amino-5-(1H-pyrazol-4-yl)pyridin-3-yl)-3-fluorophenyl)-3-(4-fluorophenyl)-1-isopropyl-2,4-dioxo-1,2,3,4-tetrahydropyrimidin-5-carboxamide] | > 0.1 | > 0.1 |  | 
CC(C)n1cc(C(=O)Nc2ccc(Oc3ccnc4[nH]ccc34)c(F)c2)c(=O)n(-c2ccc(F)cc2)c1=O [No. 41, N-(4-((1H-pyrrolo[2,3-b]pyridin-4-yl)oxy)-3-fluorophenyl)-3-(4-fluorophenyl)-1-isopropyl-2,4-dioxo-1,2,3,4-tetrahydropyrimidin-5-carboxamide] | < 0.01 | < 0.01 | < 0.01 | < 0.1
CC(C)n1cc(C(=O)Nc2ccc(Oc3ccnc4[nH]cc(Br)c34)c(F)c2)c(=O)n(-c2ccc(F)cc2)c1=O [No. 42] | < 0.01 | < 0.01 |  | 
CC(C)n1cc(C(=O)Nc2ccc(Oc3ncnc4[nH]cc(-c5ccccc5)c34)c(F)c2)c(=O)n(-c2ccc(F)cc2)c1=O [No. 44, N-(3-fluoro-4-((5-phenyl-7H-pyrrolo[2,3-d]pyrimidin-4-yl)oxy)phenyl)-3-(4-fluorophenyl)-1-isopropyl-2,4-dioxo-1,2,3,4-tetrahydropyrimidin-5-carboxamide] | 0.01 to 0.1 | < 0.01 |  | 
CC(C)n1cc(C(=O)Nc2ccc(Oc3ccnc4c3CC(=O)N4)c(F)c2)c(=O)n(-c2ccc(F)cc2)c1=O [No. 45, N-(3-fluoro-4-((2-oxo-2,3-dihydro-1H-pyrrolo[2,3-b]pyridin-4-yl)oxyl)phenyl)-3-(4-fluorophenyl)-1-isopropyl-2,4-dioxo-1,2,3,4-tetrahydropyrimidin-5-carboxamide] | > 0.1 | 0.01 to 0.1 |  | 

Next, values leading:

IC50 [1] [µM] | IC50 [2] [µM] | IC50 (BaF3-TEL-AXL cells) [µM] | IC50 (MKN45 cells) [µM] | SMILES
0.01 to 0.1 | < 0.01 |  |  | CC(C)n1cc(C(=O)Nc2ccc(Oc3ccnc4c3OCCN4)cc2)c(=O)n(-c2ccc(F)cc2)c1=O [No. 48, N-(4-((3,4-dihydro-2H-pyridino[3,2-b][1,4]oxazin-8-yl)oxy)phenyl)-3-(4-fluorophenyl)-1-isopropyl-2,4-dioxo-1,2,3,4-tetrahydropyrimidin-5-carboxamide]
0.01 to 0.1 | < 0.01 | < 0.01 | < 0.1 | CC(C)n1cc(C(=O)Nc2ccc(Oc3cc4cnn(C)c4cc3-c3cn[nH]c3)c(F)c2)c(=O)n(-c2ccc(F)cc2)c1=O [No. 50, N-(3-fluoro-4-((1-methyl-6-(1H-pyrazol-4-yl)-1H-indazol-5-yl)oxy)phenyl)-3-(4-fluorophenyl)-1-isopropyl-2,4-dioxo-1,2,3,4-tetrahydropyrimidin-5-carboxamide]
< 0.01 | < 0.01 |  |  | CC(C)n1cc(C(=O)Nc2ccc(Oc3ccnc4c3CCN4)c(F)c2)c(=O)n(-c2ccc(F)cc2)c1=O [No. 51, N-(4-((2,3-dihydro-1H-pyrrolo[2,3-b]pyridin-4-yl)oxy)-3-fluorophenyl)-3-(4-fluorophenyl)-1-isopropyl-2,4-dioxo-1,2,3,4-tetrahydropyrimidin-5-carboxamide]
0.01 to 0.1 | 0.01 to 0.1 |  |  | COCCCn1cc(C(=O)Nc2ccc(Oc3ccnc(-c4cnn(C)c4)c3)c(F)c2)c(=O)n(-c2ccc(F)cc2)c1=O [No. 55, N-(3-fluoro-4-((2-(1-methyl-1H-pyrazol-4-yl)pyridin-4-yl)oxy)phenyl)-3-(4-fluorophenyl)-1-(3-methoxypropyl)-2,4-dioxo-1,2,3,4-tetrahydropyrimidin-5-carboxamide]
